The results in this text go back to US4018782A, “2,2-Dimethyl-3R-carboxy-6S- acylamido-1-oxa-4-aza-5R-bicyclo[3,2,0]heptan-7-ones” (Queen's University, priority 1974, dated 1977).

SMILES strings stand for the structures.

Test [1] is described as follows: antibacterial activity (organism not stated). The format is cell-based. The conditions noted are these: at levels of 250 mcg./ml.
The next test deals with S. lutea. As to the kind of experiment: antibacterial activity (plate assay) vs S. lutea. The format is cell-based. The method, then:
The oxazoline (74 mg., 0.236 mmole) was dissolved in HMPT (1.5 ml.) and the solution was degassed with dry nitrogen for 0.5 hr. Then 0.83 ml. of a 0.612 M solution of t-BuSLi (0.508 mmole), prepared by method A, was added during 0.5 hr. and the mixture was stirred overnight. […] The characteristic peak of the oxazolinecarboxylic acid, 2-benzyl-6-(1'-carboxy-2'-methyl-prop-1'-enyl)-1-oxa-3,6-diaza-4S,5R-bicyclo [3,2,0] hept-2-ene-7-one, were absent from the spectrum.

Regarding `CC(C)=C(C(=O)O)N1C(=O)[C@H]2N=C(Cc3ccccc3)O[C@H]21` [oxazoline carboxylic acid, 2-benzyl-6-(1'-carboxy-2'-methylprop-1'-enyl)-1-oxa-3,6-diaza-4S,5R-bicyclo [3.2.0] hept-2-en-7-one], the “antibacterial activity at 250 mcg./ml.” value in test [1] is “inactive”.
`CC1(C)O[C@@H]2[C@H](N3C(=O)c4ccccc4C3=O)C(=O)N2[C@H]1C(=O)O` [6-phthalimido oxapenicillin]: the “antibacterial activity versus S. lutea relative to phthalimidopenicillin” value in the test on S. lutea (compared with phthalimidopenicillin) is “one-tenth the level of phthalimidopenicillin”.
Regarding `CC(Oc1ccc(Cl)cc1)C(=O)N[C@@H]1C(=O)N2[C@@H]1OC(C)(C)[C@@H]2C(=O)O` (stereo partly drawn), the “antibacterial activity vs. S. lutea” value in the test with S. lutea is recorded as “high antibacterial activity”.
